{"source": "patent US20160045498A1", "about": "“METHODS OF TREATING DISEASES CHARACTERIZED BY EXCESSIVE WNT SIGNALLING” (THE WALTER AND ELIZA HALL INSTITUTE OF MEDICAL RESEARCH, priority 2013, published 2016)", "key": {"small intestine": {"tested_on": "small intestine", "test": "Irradiation induced intestinal regeneration", "assay_type": "in vivo", "settings": "gp130^F/F mice, AZD1480 30 mg/kg, 72 h after γ-irradiation (14 Gy)", "description": "a Immunohistochemical analysis for the proliferation marker PCNA on sections of small intestines of wild-type (Wt), gp130^F/F (F/F), Stat3^+/−, gp130^F/F;Stat3^+/− (F/F Stat3^+/−), gp130^ΔStat/ΔStat (Δ/Δ) and gp130^ΔStat/+ (Δ/+) as well as of Wt and F/F mice treated with Jak2 kinase inhibitor AZD1480 (Jak2i; 30 mg/kg) 72 h after exposure to γ-irradiation. Scale bar=100 μm.\nb Enumeration of intact crypts in cross sections from the proximal small intestine stained for PCNA obtained 72 h after exposure of mice of the indicated genotype to γ-irradiation. (*p≦0.04; n=3 mice).\nMice were irradiated with a single dose of 14 Gy of γ-irradiation (0.414 Gy/min) to determine regenerative potential of the small intestine as described (Ashton et al., 2010)."}, "intestinal tumours": {"tested_on": "intestinal tumours", "test": "Treatment of ApcMin mice with established intestinal tumours", "assay_type": "in vivo", "settings": "Apc^Min mice treated daily 30 mg/kg from 6 to 12 weeks of age; increased in vehicle cohort", "text": "Hematoxilin and Eosin-stained sections were scanned using an Aperio ScanScope XT (Aperio, USA) pathology slide scanner with a 20x PlanApo NA0.6 objective and areas of interest were extracted using Aperio ImageScope software v11.1.2.760. The area of individual tumors was outlined using MetaMorph v7.7.7 and standardized against the entire length of the colon section as described (Barker et al., 2009)."}, "SW480^APC cells": {"tested_on": "SW480^APC cells", "test": "Soft agar colony growth assay, SW480APC", "assay_type": "cell-based, human", "settings": "10 days, AZD1480 1 μM, S3I-201 50 μM, IL11 10 ng/ml", "description": "e Photograph of SW480 and SW480^APC CRC cells grown for 10 days under colony forming conditions in soft agar in the presence of vehicle or 1 μM of Jak2 inhibitor AZD1480 (Jak2i) (Scale bar=200 μm)\nf Colony forming capacity of an isogenic pair of SW480 cells scored 10 days after the indicated treatment. (*p≦0.04; triplicate cultures and repeated).\nSW480 and SW480^APC cells (Faux et al., 2004) were seeded in 2 ml of RPMI media supplemented with 10% FBS and 1% penicillin/streptomycin in 35 mm culture dishes at a density of 2×10^5 cells per dish. Three days later cultures were exposed to AZD1480 (1 μM) for 15 min. Co-immunofluorescence was then performed with antibodies to rabbit phospho-Stat3 (Tyr705, Santa Cruz #9134s, 1:200 dilution) and mouse β-catenin (Transduction Laboratories, 1:400). Colony formation assays of SW480 cells in soft agar were performed as described (Faux et al., 2004) in the presence of either AZD1480, (1 μM), the Stat3 inhibitor S3I-201 (Biovision, 50 μM) or recombinant human IL11 (Genetics Institute, 10 ng/ml). All experiments were performed in triplicates and repeated at least once. Vehicle was methylcellulose."}, "SW480 cells": {"tested_on": "SW480 cells", "test": "SW480 tumor xenografts", "assay_type": "in vivo, human", "description": "a Tumour xenograft burden in BALB/c nude mice injected s.c. with SW480 cells in matrigel and receiving daily gavage with AZD1480 (30 mg/kg) or vehicle starting on the 5th day after cell inoculation. (*p≦0.018; two sided t-test; n=12 mice), d Immunohistochemical analysis of p21 expression in xenograft tumours following 35 days of treatment with Jak2 inhibitor AZD1480 or vehicle. Scale bar=100 μm. e RT-qPCR expression analysis for SOCS3, p21 and CYCLIN D1 in SW480 xenografts from FIG. 5a and b (p=0.04; n=3 mice). One flank of female BALB/c nude mice was injected subcutaneously with 2×10^6 SW480 cells resuspended in Matrigel (BD Biosciences)/PBS (1:1) at a final volume of 200 μl. Once tumor became palpable (>100 mm^3) approximately 5 days later, mice received continuous daily gavage of the Jak2 inhibitor AZD1480 ([…] et al., 2009) (30 mg/kg, a gift from Astra-Zeneca). Gene expression analysis by RT-qPCR was performed using the SybrGreen method (ABI) as described previously ([…] et al., 2008). Fold change was calculated using the 2^-ΔΔCT method (Livak et al., 2001). Protein expression was analysed by Western blot by transferring SDS-PAGE separated protein lysates to nitrocellulose membrane and blocked either in 5% non-fat milk powder and probed with antibodies detecting p16 (Santa Cruz; #sc-467), Bmi1 (Millipore #[…]), Actin (Sigma; #A2066) or Gapdh (Santa Cruz; #sc-69778). All antibodies were diluted 1:1000 in BSA or non-fat milk powder and incubations were performed overnight. Tissues were fixed and immunohistochemistry performed as described previously (Sansom et al., 2007). Primary antibodies used were rabbit phospho-Stat3 to Tyr705 (Santa Cruz #9134s, 1:150), mouse β-catenin (Transduction Laboratories, 1:300), rabbit PCNA (Santa Cruz #7907, 1:100), rabbit […] (Santa Cruz N-262. Lot #C1309, 1:200), and goat p21 (Santa Cruz #Sc-397-G; 1:100)."}, "RKO cells": {"tested_on": "RKO cells", "test": "RKO tumor xenografts", "assay_type": "in vivo", "settings": "RKO (low Wnt signaling), BALB/c nude mice, daily gavage 30 mg/kg from day 7", "description": "c, d Tumour xenograft burden in BALB/c nude mice injected s.c. with DLD1 cells or RKO cells in PBS and receiving daily gavage with AZD1480 (30 mg/kg) or vehicle starting on the 7th day after cell inoculation. (*p≦0.0004; two sided t-test; n=8)."}, "intestinal epithelium": {"tested_on": "intestinal epithelium", "test": "Homeostatic turnover of the intestinal epithelium and body weight in treated mice", "assay_type": "in vivo", "description": "a qRT-PCR expression analysis for Wnt target genes from RNA extracted from AZD1480 or vehicle-treated BALB/c-nude hosts used for the xenograft experiments (*p<0.04, n≧5 mice). b Immunohistochemical analysis of cell proliferation (BrdU), goblet cells (Periodic Acid/Schiff, PAS) and Paneth cells ([…]) or vehicle Control. Scale bar 50 μm. c Weight of BALB/c-nude mice treated with either vehicle or AZD1480 (30 mg/kg, daily) between days 5 and 21 of xenograft experiment (n=8)."}, "[1]": {"settings": "mice treated for 3 weeks, 30 mg/kg daily, vs vehicle"}}}
{"smiles": "Cc1cc(Nc2nc(N[C@@H](C)c3ncc(F)cn3)ncc2Cl)n[nH]1", "note": "[AZD1480]", "values": [{"measurement": "intestinal regeneration", "setting": "small intestine", "value": "impaired"}, {"measurement": "total tumour area", "setting": "intestinal tumours", "value": "remained remarkably constant"}, {"measurement": "tumour number", "setting": "intestinal tumours", "value": "remained remarkably constant"}, {"measurement": "colony formation in soft agar", "setting": "SW480^APC cells", "value": "did not affect colony formation"}, {"measurement": "growth of established SW480 tumours", "setting": "SW480 cells; BALB/c nude mice, s.c., daily gavage 30 mg/kg from day 5", "value": "reduced the growth"}, {"measurement": "CYCLIND1 expression (RT-qPCR)", "setting": "SW480 cells; RNA from SW480 xenografts", "value": "decrease"}, {"measurement": "SOCS3 expression (RT-qPCR)", "setting": "SW480 cells; RNA from SW480 xenografts", "value": "decrease"}, {"measurement": "p21 expression (RT-qPCR)", "setting": "SW480 cells; RNA from SW480 xenografts", "value": "increased"}, {"measurement": "p21 expression in tumours (immunohistochemistry)", "setting": "SW480 cells; SW480 xenografts, 35 days of treatment, vs vehicle", "value": "increased"}, {"measurement": "xenograft tumor growth", "setting": "RKO cells", "value": "did not result in reduced tumor growth"}, {"measurement": "body weight", "setting": "intestinal epithelium; BALB/c-nude mice, 30 mg/kg daily, days 5 to 21 of xenograft experiment", "value": "did not affect body weight"}, {"measurement": "intestinal expression of prototypical Wnt target genes", "setting": "intestinal epithelium; BALB/c-nude xenograft hosts, qRT-PCR", "value": "remained unaffected"}, {"measurement": "proportion of BrDU-positive proliferating intestinal epithelium cells", "setting": "intestinal epithelium; [1]", "value": "no differences"}, {"measurement": "proportion of PAS-staining goblet cells", "setting": "intestinal epithelium; [1]", "value": "no differences"}, {"measurement": "proportion of lysozyme-positive Paneth cells", "setting": "intestinal epithelium; [1]", "value": "no differences"}]}
